According to patent US9181294B2, “Nucleoside analogues for the treatment of a viral infection, and method for evaluating the sensitivity to said treatment” (priority 2011, dated 2015):
pIC50: −log10 of the molar value. Where two headings read alike, the source gives them in different places.

Experiments:
[1] = system: pNL4-3 Q184H; test: Resistance index on pNL4-3 virus modified by site-directed mutagenesis; assay type: cell-based, HIV-1; settings: Table 1C; integrase-inhibitor-resistance mutant Q184H; ratio IC50 mutant / IC50 wild type
[2] = system: Lai virus in MT2 cells, intracellular viral DNA; test: Inhibition of double-stranded proviral DNA production (Taqman real-time PCR); assay type: cell-based, HIV-1; settings: 10 or 25 μM of compound, FIG. 2
Method: (§1) The MT2 cells were concentrated at 15×10^6/ml and incubated for 2 h with 10 or 25 μM of compound A. The Lai virus is then added at a multiplicity of infection of 0.01 for 1 h. The cells are washed and then incubated in culture medium containing 10 or 25 μM of the compound to be tested. A sample of 1×10^6 cells is taken at various times and the viral DNA is quantified by means of a Taqman real-time PCR method. The viral RNA loads are quantified in the culture medium (Cobas AmpliPrep/Cobas TaqMan (CTM) HIV-1 v2 test).

[3] = system: HIV-1 pNL-4.3 clone (pNL4-3 wild type); test: Antiviral test in HeLa-P4 cells (single cycle, CPRG beta-galactosidase test); assay type: cell-based
Method: HeLa-P4 cells are HeLa CD4 LTR-LacZ cells in which the expression of LacZ is induced by the trans-activating Tat protein of HIV, making it possible to precisely quantify the HIV-1 infectivity from a single replication cycle. HeLa-CD4 cells growing exponentially at a density of 1×10^4/ml are placed in 96-well plates and infected on the following day with 3 ng of HIV p24 antigen in the presence of various concentrations of compounds.
(§2) The titres for a single cycle of the virus were determined in HeLa-P4 cells. The cells were infected, in duplicate, in 96-well plates, with the HIV-1 pNL-4.3 clone (equivalent to 3 ng of p24 antigen). The titres for a single cycle of the viruses were determined 48 hours after infection by quantifying the beta-galactosidase activity in P4 lysates by means of a colorimetric test (CPRG test) based on cleavage of chlorophenol red-beta-D-galactopyranoside (CPRG) by beta-galactosidase. The 50% inhibitory concentration (IC50) was determined as the concentration of compound A providing 50% inhibition of beta-galactosidase levels compared with the untreated infected cells.
The antiviral activity of compound A according to the invention was evaluated using an amount of HIV corresponding to 3 ng of p24 antigen.
(§3) Compound A according to the invention was tested on the pNL4-3 virus optionally modified by site-directed mutagenesis, comprising or not comprising (wt) the mutations located in the reverse transcriptase gene and associated with resistance to the main NRTIs used in clinical practice. Tables 1A to 1C below group together the resistance indices of compound A according to the invention on the viruses with and without mutation.
(§4) The resistance index of a mutant represents the ratio of the concentration of compound capable of inhibiting by half (IC50) the growth of the mutant virus tested, to the concentration of compound capable of inhibiting by half (IC50) the growth of the wild-type virus.

[4] = in vitro; assay type: cell-based; settings: read-out: CC50 (50% cytotoxic concentration)
Method: A cell viability test measuring the absorbance at 560 and 690 nm using the yellow tetrazolium […] [3-(4,5-dimethyl-2-thiazolyl)-2,5-diphenyltetrazolium bromide] reagent was carried out with the tetrabenzoyladenosine in the HeLa-CD4, Vero, FH, MT2 and SupT1 cell lines.
Using various cell types (HeLa-CD4, Vero, FH, MT2 and SupT1), the CC50 (50% cytotoxic concentration) of compound A was measured at more than 100 μM in all cases.

[5] = system: pNL4-3 N155H; assay type: cell-based, HIV-1
[6] = system: LAI viruses in MT2 cells; test: Antiviral test in MT2 cells (viral load on day 3); assay type: cell-based, HIV-1; settings: Human immunodeficiency virus 1; MT2 cells infected with LAI viruses
Method: The MT2 cells were concentrated at 3×10^6/ml and infected with 10^7 viruses (LAI). The cells were distributed into 96-well plates (1×10^5/well) and incubated in the presence of various concentrations of compound A (in quadruplicate). The viral loads were determined on day 3 (Cobas AmpliPrep/Cobas TaqMan (CTM) HIV-1 v2 test).
Compound A was tested on MT2 cells infected with LAI viruses.

[7] = system: pNL4-3 T215Y; assay type: cell-based, HIV-1
Method: as §2, §3, §4
(§5) A resistance index greater than approximately 1.5 or 2 signifies that the viral strain is resistant to the treatment.

[8] = system: pNL4-3 M184V; assay type: cell-based, HIV-1
Method: as §2, §3, §4, §5

[9] = system: pNL4-3 E138K; assay type: cell-based, HIV-1
Method: as §2, §3, §4, §5

[10] = system: pNL4-3 M41L-L210W-T215Y; assay type: cell-based, HIV-1
Method: as §2, §3, §4, §5

[11] = system: pNL4-3 K103N; assay type: cell-based, HIV-1
Method: as §2, §3, §4, §5

[12] = system: pNL4-3 M184V-M41L-L210W-T215Y; assay type: cell-based, HIV-1
Method: as §2, §3, §4, §5

[13] = system: pNL4-3 K65R; assay type: cell-based, HIV-1
Method: as §2, §3, §4, §5

[14] = system: pNL4-3 K65R-M184V; assay type: cell-based, HIV-1
Method: as §2, §3, §4, §5

[15] = system: pNL4-3 G140S-Q184H; test: Resistance index on pNL4-3 virus modified by site-directed mutagenesis; assay type: cell-based, HIV-1; settings: Table 1C; integrase-inhibitor-resistance mutant G140S-Q184H; ratio IC50 mutant / IC50 wild type
Method: as §2, §3
The resistance index of a mutant represents the ratio of the concentration of compound capable of inhibiting by half (IC50) the growth of the mutant virus tested, to the concentration of compound capable of inhibiting by half (IC50) the growth of the wild-type virus. […]

[16] = system: Lai virus in MT2 cells, extracellular viral RNA; test: Inhibition of viral RNA production in culture medium (Cobas TaqMan HIV-1 v2 test); assay type: cell-based
Method: as §1

[17] = amount of HIV corresponding to 3 ng of p24 antigen

O=C(O[C@@H]1[C@H](OC(=O)c2ccccc2)[C@H](n2cnc3c(N(C(=O)c4ccccc4)C(=O)c4ccccc4)ncnc32)O[C@@H]1CO)c1ccccc1 (stereo in doubt) [compound A, N^6,N^6,O^2′,O^3′-tetrabenzoyladenosine]
Resistance index [1]: 0.88
appearance of the intracellular viral DNA [2]: inhibited
Viral production (10 μM of compound) [3, 17]: 0%
pIC50 ([3]; Human immunodeficiency virus 1, HeLaP4, amount of HIV corresponding to 3 ng of p24 antigen, FIG. 1): 5.70 to 6.00
Resistance index ([3]; {}): 1
Resistance index (fold change) ([3]; {}): 1 fold change
CC50 ([4]; African green monkey, Vero cells): > 100 µM
CC50 ([4]; FH cells): > 100 µM
CC50 ([4]; human, HeLa-CD4 cells): > 100 µM
CC50 ([4]; human, MT2 cells): > 100 µM
CC50 ([4]; human, SupT1 cells): > 100 µM
Resistance index [5]: 1.04
pIC50 [6]: 5.80
Resistance index (fold change) [7]: 0.41 fold change
Resistance index (fold change) [8]: 0.99 fold change
Resistance index [9]: 0.89
Resistance index (fold change) [10]: 0.38 fold change
Resistance index [11]: 1
Resistance index (fold change) [12]: 0.58 fold change
Resistance index (fold change) [13]: 0.92 fold change
Resistance index (fold change) [14]: 1.07 fold change
Resistance index [15]: 0.99
production of the extracellular viral RNA ([16]; 10 or 25 μM of compound, FIG. 3): inhibited
inhibition of the viral load, comparison with AZT (zidovudine) ([16]; FIGS. 2 and 3): clear superiority

O=C(Nc1ncnc2c1ncn2[C@@H]1O[C@H](CO)[C@H](OC(=O)c2ccccc2)[C@@H]1OC(=O)c1ccccc1)c1ccccc1 [reference compound]
Viral production (10 μM of compound) [3, 17]: 109%
